Experimental data: US8367087B2, “Soil amendment compositions and methods for using the same” (priority 1998, dated 2013)

Tested on: J2 larvae of the Root Knot Nematode (Meloidogyne incognita)
Assay: Touch response of J2 larvae after 24 hours exposure to predisposing agents
Format: in vivo
Procedure: The merits of alternative predisposing agents were examined by subjecting J2 larvae of the Root Knot Nematode (Meloidogyne incognita) to solutions of lignosulfonate and gallic acid. J2 larvae were exposed 24 hours to various concentrations of the materials in shallow 50 ml beakers. Following exposure, nematodes were inspected for activity level using touch response: […]

`O=C(O)c1cc(O)c(O)c(O)c1` [Gal Ac, Gallic Acid] was tested, and the Control % (5 ppm) was 30.7%, the “active, responding nematodes per total examined (viable/total), Mean” value (5 ppm) was 312/450 and the “active, responding nematodes per total examined (viable/total), Replication 1” value (5 ppm) was 305/462. The “active, responding nematodes per total examined (viable/total), Replication 2” value (5 ppm) was 316/440, the “active, responding nematodes per total examined (viable/total), Replication 3” value (5 ppm) was 326/447 and the “active, responding nematodes per total examined (viable/total), Replication 4” value (5 ppm) was 302/450. The “active, responding nematodes per total examined (viable/total), Total” value (5 ppm) was 1249/1799, the Control % (25 ppm) was 47.7% and the “active, responding nematodes per total examined (viable/total), Mean” value (25 ppm) was 239/457. The “active, responding nematodes per total examined (viable/total), Replication 1” value (25 ppm) was 250/458, the “active, responding nematodes per total examined (viable/total), Replication 2” value (25 ppm) was 248/449 and the “active, responding nematodes per total examined (viable/total), Replication 3” value (25 ppm) was 232/459. For the same compound, the “active, responding nematodes per total examined (viable/total), Replication 4” value (25 ppm) was 225/462, the “active, responding nematodes per total examined (viable/total), Total” value (25 ppm) was 955/1828 and the Control % (100 ppm) was 60.9%. For the same compound, the “active, responding nematodes per total examined (viable/total), Mean” value (100 ppm) was 176/450, the “active, responding nematodes per total examined (viable/total), Replication 1” value (100 ppm) was 193/450 and the “active, responding nematodes per total examined (viable/total), Replication 2” value (100 ppm) was 185/448. For the same compound, the “active, responding nematodes per total examined (viable/total), Replication 3” value (100 ppm) was 176/436, the “active, responding nematodes per total examined (viable/total), Replication 4” value (100 ppm) was 150/464 and the “active, responding nematodes per total examined (viable/total), Total” value (100 ppm) was 704/1798. The Control % (1000 ppm) was 92.7%, the “active, responding nematodes per total examined (viable/total), Mean” value (1000 ppm) was 33/452 and the “active, responding nematodes per total examined (viable/total), Replication 1” value (1000 ppm) was 25/449. The “active, responding nematodes per total examined (viable/total), Replication 2” value (1000 ppm) was 39/444, the “active, responding nematodes per total examined (viable/total), Replication 3” value (1000 ppm) was 40/454 and the “active, responding nematodes per total examined (viable/total), Replication 4” value (1000 ppm) was 27/460. The “active, responding nematodes per total examined (viable/total), Total” value (1000 ppm) was 131/1807.
